Laboratory results reported in patent US12384769B2, “Heteroaryl-substituted aminoalkyl azole compounds as pesticides” (Elanco Animal Health GmbH, priority 2019, dated 2025).

Assays:
Format in all cases: in vivo
[1] = system: Myzus persicae; experiment: Myzus persicae oral test; settings: 120 h, after 5 days
Procedure: Solvent: 100 parts by weight acetone
Afterwards the plates are sealed with parafilm through which a mixed population of the green peach aphid (Myzus persicae) can suck on the compound preparation.
(§1) After 5 days mortality in % is determined. 100% means all aphids have been killed and 0% means none of the aphids have been killed.

[2] = system: Diabrotica balteata; experiment: Diabrotica balteata spray test; settings: 168 h, wheat seeds, after 7 days, read-out: activity (efficacy, seedlings grown); for pest or weed control at 160 µg/disc, 500 g/ha: 500 g/ha (=160 μg/well)
Procedure, shortened: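 Efficacy was read 7 days after infesting each unit with 10–20 banded cucumber beetle larvae, as % of seedlings growing like untreated, uninfested controls. Before infestation, wheat seeds germinated 1 day on agar (5 per well) were sprayed with the active ingredient. The active was formulated in acetone/DMF and diluted in water containing emulsifier.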

[3] = system: Aedes aegypti strain MONHEIM; experiment: Aedes aegypti test (AEDSAE surface treatment & contact assay); settings: 30 minutes exposure, 24 hours after contact, read-out: efficacy (mortality); for mortality at 4 mg/m2: surface concentration 4 mg/m^2, glazed tile; for mortality at 20 mg/m2: surface concentration 20 mg/m^2, glazed tile
Procedure: Aedes aegypti Test (AEDSAE Surface Treatment & Contact Assay)
(§2) Solvent: Aceton+2000 ppm rapeseed oil methyl ester (RME)
(§3) In order to produce a sufficient, active ingredient containing solution it is necessary to solve the test compound in the solvent-mix (acetone at 2 mg/mL/RME 2000 ppm). This solution is pipetted onto a glazed tile and after evaporation of the acetone, adult mosquitoes of the species Aedes aegypti strain MONHEIM are placed onto the dried surface. The exposure time is 30 minutes.
(§4) Mortality in percent (%) is determined 24 hours after contact of the insects to the treated surface. 100% mortality means that all tested insects are dead, whereas 0% means that no insect died.

[4] = system: Spodoptera frugiperda; experiment: Spodoptera frugiperda spray test; settings: in Zea mays, 168 h, read-out: activity (mortality)
Procedure, shortened: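 Larvae of fall armyworm placed on dried maize leaf sections previously sprayed with emulsified compound (acetone/DMF solvent, water with 1000 ppm emulsifier). Percent of caterpillars killed recorded on day 7, 0–100% scale.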

[5] = system: Rhipicephalus microplus (strain Parkhurst, resistant against synthetic pyrethroids); experiment: Rhipicephalus microplus in-vitro contact test, larval cattle tick (BOOPMI Contact); settings: 5 μg/cm^2 (=500 g/ha), after 48 hours, read-out: activity (efficacy, larvae dead or moribund)
Procedure, shortened: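 Efficacy, expressed as percentage of larvae dead or moribund, is judged by negative geotactic behaviour 48 h after larvae (20-50 per tube) enter tubes whose inner walls carry a dried acetone film of compound, 5 μg/cm² at 900 ppm. Incubation: horizontal, 27 °C, 85% relative humidity.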

[6] = system: Boophilus microplus; experiment: Boophilus microplus injection test (BOOPMI Injection); settings: Rhipicephalus microplus, 168 h, injection into adult engorged female ticks, egg deposition after 7 days, read-out: activity (efficacy, infertile eggs); for pest or weed control at 0.004 mg: 4 μg/animal; for pest or weed control at 0.02 mg: 20 μg/animal
Procedure, shortened: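 Adult engorged female ticks (5 per group) injected into the abdomen with 1 μL compound in DMSO, then held in a climate chamber. Fertile egg deposition scored after 7 days, with unclear eggs kept until hatching (~42 days). Efficacy 100% = all eggs infertile, 0% = all fertile.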

[7] = system: Ctenocephalides felis; experiment: Ctenocephalides felis oral test (CTECFE); settings: 48 h, 100 ppm in cattle blood, after 2 days
Procedure, shortened: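 About 20 adult unfed fleas fed through parafilm on cattle blood held at 37° C and dosed with compound from a DMSO concentrate; flea chamber at room temperature. Percent mortality scored after 2 days.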

[8] = system: Ctenocephalides felis; experiment: Ctenocephalides felis in-vitro contact test, adult cat flea; settings: 5 μg/cm^2 (=500 g/ha), after 48 hours, read-out: activity (efficacy, fleas dead or moribund)
Procedure: Ctenocephalides felis—in-Vitro Contact Tests Adult Cat Flea
(§5) 9 mg compound is solved in 1 ml acetone and diluted with acetone to the desired concentration. 250 of the test solution is filled in 25 ml glass test tubes and homogeneously distributed on the inner walls by rotation and tilting on a shaking device (2 h at 30 rpm). With a compound concentration of 900 ppm, an inner surface of 44.7 cm^2 and a homogeneous distribution, a dose of 5 μg/cm^2 is achieved.
(§6) After the solvent has evaporated, each test tube is filled with 5-10 adult cat fleas (Ctenocephalides felis), closed with a perforated lid and incubated in a lying position at room temperature and relative humidity. After 48 hours efficacy is determined. The fleas are patted on the ground of the tubes and are incubated on a heating plate at 45-50° C. for at most 5 minutes Immotile or uncoordinated moving fleas, which are not able to escape the heat by climbing upwards, are marked as dead or moribund.
An efficacy of 100% means all fleas are dead or moribund; 0% means no fleas are dead or moribund.

[9] = system: Rhipicephalus sanguineus; experiment: Rhipicephalus sanguineus in-vitro contact test, adult brown dog ticks (RHIPSA Contact); settings: 5 μg/cm^2 (=500 g/ha), after 48 hours, read-out: activity (efficacy, ticks dead or moribund)
Procedure: Rhipicephalus sanguineus—in-Vitro Contact Tests with Adult Brown Dog Ticks (RHIPSA Contact)
as §5, with “250 μl_,” for “250”
as §6, with “brown dog ticks (Rhipicephalus sanguineus),” for “cat fleas (Ctenocephalides felis),”, “ticks” for “fleas”, “ticks,” for “fleas,”
An efficacy of 100% means all ticks are dead or moribund; 0% means no ticks are dead or moribund.

[10] = system: Myzus persicae; experiment: Myzus persicae spray test; settings: foliar, 120 h, 500 g/ha, Chinese cabbage leaf disks, after 5 days
Procedure: Myzus persicae—Spray Test
Solvent: 78.0 parts by weight acetone • 1.5 parts by weight dimethylformamide
Emulsifier: alkylarylpolyglycol ether
To produce a suitable preparation of active compound, 1 part by weight of active compound is mixed with the stated amount of solvents and is diluted with water, containing an emulsifier concentration of 1000 ppm, to the desired concentration. Further test concentrations are prepared by dilution with emulsifier containing water.
Chinese cabbage (Brassica pekinensis) leaf disks infected with all instars of the green peach aphid (Myzus persicae), are sprayed with a preparation of the active ingredient of the desired concentration.
as §1

[11] = system: Musca domestica strain WHO-N; experiment: Musca domestica test (MUSCDO surface treatment & contact assay); settings: surface concentration 4 mg/m^2, glazed tile, 30 minutes exposure, 24 hours after contact, read-out: efficacy (mortality)
Procedure: Musca domestica Test (MUSCDO Surface Treatment & Contact Assay)
as §2
as §3, with “flies” for “mosquitoes”, “Musca domestica” for “Aedes aegypti”, “WHO—N” for “MONHEIM”
as §4

[12] = system: Anopheles funestus strain FUMOZ-R; experiment: Anopheles funestus test (ANPHFU surface treatment & contact assay); settings: 30 minutes exposure, 24 hours after contact, read-out: efficacy (mortality); for mortality at 4 mg/m2: surface concentration 4 mg/m^2, glazed tile
Procedure: Anopheles funestus Test (ANPHFU Surface Treatment & Contact Assay)
as §2
as §3, with “Anopheles funestus” for “Aedes aegypti”, “FUMOZ-R (Hunt et al., Med. Vet. Entomol. 2005 September; 19(3): 271-275)” for “MONHEIM”
as §4

SMILES	mortality at 4 ppm [1] [%]	pest or weed control at 160 µg/disc, 500 g/ha [2] [%]	mortality at 4 mg/m2 [3] [%]	mortality at 100 g/ha [4] [%]	mortality at 500 g/ha [4] [%]	pest or weed control at 5 µg/cm2 [5] [%]	pest or weed control at 0.004 mg [6] [%]	pest or weed control at 0.02 mg [6] [%]	mortality at 100 ppm [7] [%]	pest or weed control at 5 µg/cm2, 5 µg/cm2 [8] [%]	pest or weed control at 100 g/ha [2] [%]	pest or weed control at 5 µg/cm2, 5 µg/cm2 [9] [%]	mortality at 500 g/ha [10] [%]	mortality at 4 mg/m2 [11] [%]	mortality at 4 mg/m2 [12] [%]	mortality at 20 mg/m2 ([12]; surface concentration 20 mg/m^2, glazed tile) [%]	mortality at 20 mg/m2 [3] [%]
C[C@H](Nc1nc2cc(C(F)(F)F)cc(Cl)c2o1)c1ncnn1-c1ncccn1 [Example I-006]	90	100	85 to 100	100	100	100	100	100	100	100							
Cc1nc([C@H](C)Nc2nc3cc(C(F)(F)F)c(Cl)cc3o2)n(-c2ncccn2)n1 [Example I-011]	90	100			100	80	100	100	100		100	80					
C[C@H](Nc1nc2cc(Cl)cc(Cl)c2o1)c1ncnn1-c1ncccn1 [Example I-013]		100				100			90				100				
C[C@H](Nc1nc2cc(C(F)(F)F)cc(Cl)c2o1)c1ncnn1-c1ncc(F)cn1 [Example I-045, 7-Chlor-N-{(1S)-1-[1-(5-fluorpyrimidin-2-yl)-1H-1,2,4-triazol-5-yl]ethyl}-5-(trifluormethyl)-1,3-benzoxazol-2-amin]		100		100	100	80	100	100	100	100	100	100					
C[C@H](Nc1nc2cc(C(F)(F)F)c(Cl)cc2o1)c1ncnn1-c1ncc(Cl)cn1 [Example I-059, 6-Chlor-N-{(1)S-1-[1-(5-chlorpyrimidin-2-yl)-1H-1,2,4-triazol-5-yl]ethyl}-5-(trifluormethyl)-1,3-benzoxazol-2-amin]	90		85 to 100	100		100				100	100	100		90 to 100	85 to 100	90 to 100	90 to 100
Cc1cnc(-n2ncnc2[C@H](C)Nc2nc3cc(C(F)(F)F)c(Cl)cc3o2)nc1 [Example I-060, 6-Chlor-N-{(1S)-1-[1-(5-methylpyrimidin-2-yl)-1H-1,2,4-triazol-5-yl]ethyl}-5-(trifluormethyl)-1,3-benzoxazol-2-amin]	90			83		100				100	100	80					
C[C@H](Nc1nc2cc(C(F)(F)F)c(Cl)cc2o1)c1ncnn1-c1ncc(F)cn1 [Example I-061, 6-Chlor-N-{(1S)-1-[1-(5-fluorpyrimidin-2-yl)-1H-1,2,4-triazol-5-yl]ethyl}-5-(trifluormethyl)-1,3-benzoxazol-2-amin]	100		85 to 100	100		100				100	100	80		90 to 100	85 to 100		90 to 100
C[C@H](Nc1nc2cc(OC(F)(F)F)c(Cl)cc2o1)c1ncnn1-c1ncccn1 [Example I-082, 6-Chlor-N-{(1S)-1-[1-(pyrimidin-2-yl)-1H-1,2,4-triazol-5-yl]ethyl}-5-(trifluormethoxy)-1,3-benzoxazol-2-amin]	100			100		100				100	100	100					
Cc1nc([C@H](C)Nc2nc3cc(Cl)cc(C(F)(F)F)c3o2)n(-c2ccc(C(F)(F)F)cn2)n1 [Example I-086, 5-Chlor-N-[(1S)-1-{3-methyl-1-[5-(trifluormethyl)pyridin-2-yl]-1H-1,2,4-triazol-5-yl}ethyl]-7-(trifluormethyl)-1,3-benzoxazol-2-amin]	90					90											
C[C@H](Nc1nc2cc(C(F)(F)F)c(Cl)cc2o1)c1nc(C2CC2)nn1-c1ccc(C#N)cn1 [Example I-100, 6-{5-[(1S)-1-{[6-chloro-5-(trifluoromethyl)-1,3-benzoxazol-2-yl]amino}ethyl]-3-cyclopropyl-1H-1,2,4-triazol-1-yl}pyridine-3-carbonitrile]	90			100							100						
